pKi: −log10 of the molar value.
Target: MAP kinase-activated protein kinase 2 (Homo sapiens, UniProt P49137)
Experiment: Inhibition of MK2 in human TERT immortalised HCA2 cells assessed as inhibition of anisomycin-induced HSP27 phosphorylation at 2.5 uM by ELISA

MAP kinase-activated protein kinase 2, sequence (P49137 whole entry): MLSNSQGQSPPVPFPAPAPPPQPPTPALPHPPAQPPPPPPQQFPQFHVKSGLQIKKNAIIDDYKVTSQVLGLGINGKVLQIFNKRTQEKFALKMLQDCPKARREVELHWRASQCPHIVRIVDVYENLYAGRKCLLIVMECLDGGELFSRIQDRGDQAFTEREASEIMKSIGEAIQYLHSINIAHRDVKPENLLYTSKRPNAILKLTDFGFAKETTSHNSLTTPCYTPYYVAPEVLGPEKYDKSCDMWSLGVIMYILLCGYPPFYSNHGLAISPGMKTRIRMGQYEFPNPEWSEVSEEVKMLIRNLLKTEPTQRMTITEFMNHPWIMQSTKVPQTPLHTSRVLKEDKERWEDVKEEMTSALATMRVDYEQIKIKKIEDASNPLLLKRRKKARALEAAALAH

`O=C(CCCc1ccc(-c2ccccc2F)cc1)Nc1ccc(O)cc1` showed a pKi of 6.48.

Reference: BindingDB's records for doi:10.1016/j.bmcl.2007.10.036 (Cardiff University, 2007)
